For 101 molecules, cytotoxicity results are on record in ChEMBL document CHEMBL3507680, “University of Dundee, Gates Library screen for HepG2 cell viability”.

Structures are written as SMILES.

The series is described as follows: Human HepG2 cell viability assay in 384 well format. The following applies: HepG2 cells, read-out: Inhibition. Format: toxicity, cell-based. Also noted: dose 125 nL, time 70.5 hour; concentration not given beside the values.
For the molecule `Cc1ccc(S(=O)(=O)c2ncccc2CN2CCN(C)CC2)cc1`, the cytotoxicity at 70.5 h is -11.2%.
Regarding `COCCNC(=O)CCN1C(=O)CC2(CCCC2)C1=O`, the cytotoxicity at 70.5 h is -15.7%.
For the molecule `O=c1c(CN2CCSCC2)coc(O)c1CN1CCCC1`, the cytotoxicity at 70.5 h is 29.9%.
Turning to `COCCn1cc(CC(=O)Nc2nc3c(s2)CCC3)c2ccccc21`, the cytotoxicity at 70.5 h is -6.21%.
For `CN1C(=O)COc2ccc(NC(=O)CCc3nc4cccnc4[nH]3)cc21`, the cytotoxicity at 70.5 h was -9.73%.
`Cc1nn(-c2ccc(C(=O)O)cc2)c2c1C(c1cccs1)SCC(=O)N2` (stereo unspecified): the cytotoxicity at 70.5 h stood at 0.275%.
On to `Cc1nn(-c2ccc(C(=O)O)cc2)c2c1C(C(C)C)SCC(=O)N2` (stereo unspecified), for which the cytotoxicity at 70.5 h was -2.14%.
Turning to `Cc1cc(Br)c2c(c1)C1(CC(=O)Nc3c1cnn3C(C)C)C(=O)N2` (stereo unspecified), the cytotoxicity at 70.5 h was -24.3%.
Turning to `Cc1ccc(S(=O)(=O)c2ncccc2CN2CCN(CCO)CC2)cc1`, the cytotoxicity at 70.5 h is -30.6%.
In the case of `O=C(CCc1nc2ccccc2[nH]1)Nc1ccc2c(c1)OCC(=O)N2`, the cytotoxicity at 70.5 h is -11.6%.
As for `CC(C)n1nc(O)c2c1NC(=O)CSC2c1cnn(C)c1` (stereo unspecified), the cytotoxicity at 70.5 h was -19.6%.
As to `O=C(CCc1nc2cc(Br)cnc2[nH]1)NCCN1CCOCC1`, the cytotoxicity at 70.5 h was -10.2%.
Then `O=C(CCc1nc2cccnc2[nH]1)Nc1ccc2c(c1)OCC(=O)N2`, with -10.5%; and `Cn1c(CN2CCOCC2)cc(=O)c(O)c1CN1CCOCC1`, with -12.3%.
The same measure for `Cc1cc(C(=O)Nc2n[nH]c(C3CC3)n2)c2c(C)noc2n1`: 29%; for `O=C(Nc1nnn[nH]1)c1cc(-c2ccc(Br)s2)n[nH]1`: -3.48%; for `CN(C)CCCNC(=O)C1CC(=O)N(c2n[nH]c3cccc(F)c23)C1` (stereo unspecified): -26.2%.
With `CC(C)c1nc(CN(C)C(=O)CNS(=O)(=O)c2cccs2)cs1`, the cytotoxicity at 70.5 h was -6.67%.
Then `Cc1cnccc1CN(C)C(=O)c1cccc(CCC(C)(C)O)c1`, with -1.91%.
As for `Cc1cc(N(C)CCN(C)C)n2nc(C)cc2n1`, the cytotoxicity at 70.5 h was -1.46%.
Consider `C=C(C)COc1ccccc1NC(=O)N1CCOCC1CO` (stereo unspecified), for which the cytotoxicity at 70.5 h stood at 7.4%.
As to `Cc1cc(F)ccc1CN1CCCC(O)(CN2CCCC2)C1` (stereo unspecified), the cytotoxicity at 70.5 h was -1.52%.
The same measure for `COc1ccc(CC2(CO)CCN(c3cc(C(N)=O)ccn3)CC2)cc1`: -2.15%; for `COc1cc(F)ccc1C(C(=O)O)N(C)CCN1CCCC1` (stereo unspecified): 12.1%.
On to `COCc1cc(NCCCSc2nnc(C)s2)ncn1`, for which the cytotoxicity at 70.5 h was -6.65%.
For the molecule `COc1cc(N2CCC(c3nccn3Cc3ccccn3)CC2)ncn1`, the cytotoxicity at 70.5 h is -4.99%.
Turning to `O=C1OCCN1Cc1cc(C(F)(F)F)ccc1F`, the cytotoxicity at 70.5 h is -7.38%.
As for `CNc1cc(C)nc(N2C[C@@H](C(=O)O)[C@H](C3CC3)C2)n1`, the cytotoxicity at 70.5 h is -1.21%.
Then `Cc1c[nH]c(CN(C)C(C(=O)O)c2c(F)cccc2OC(C)C)n1` (stereo unspecified), with 1.64%; and `CCN1CCCC1CNC(=O)c1cc(COc2cccc(F)c2)[nH]n1` (stereo unspecified), with 0.339%.
As to `CCCc1nc(C)cc(N2CCC3(CCC(=O)N(CC(N)=O)C3)CC2)n1`, the cytotoxicity at 70.5 h is -8.54%.
For the molecule `C=C(C)COc1ccccc1NC(=O)NC1CCOCC1`, the cytotoxicity at 70.5 h was determined as 2.28%.
Regarding `Cc1ccccc1CN1CC[C@@]2(O)CCN(C(=O)C3CCC3)C[C@H]2C1`, the cytotoxicity at 70.5 h worked out at 2.03%.
`CN(Cc1ccccc1)C(=O)CCN1C[C@H](C2CC2)[C@@H](N(C)C)C1`: the cytotoxicity at 70.5 h was -10.8%.
`c1ccc2c(c1)CC(CNCc1ccncc1)(N1CCCCC1)C2`: the cytotoxicity at 70.5 h is -4.17%.
In the case of `CC(C)C(C)N(Cc1ccccn1)Cc1ccco1` (stereo unspecified), the cytotoxicity at 70.5 h is -22.8%.
Then `Cc1nc(CN2CCCC(Cn3cncn3)C2)nc2ccccc12` (stereo unspecified), with 19%; and `Cc1cc(C)n(CC2CCCN2C(=O)c2cn[nH]c2C)n1` (stereo unspecified), with -1.06%; and `Cc1nc(C)n(C2CCCN(C(=O)c3ccc4nccn4c3)C2)n1` (stereo unspecified), with 22.7%.
`Cc1nc(C)n(C2CCCN(C(=O)c3ccc4[nH]nnc4c3)C2)n1` (stereo unspecified): the cytotoxicity at 70.5 h was 0.449%.
Consider `Cc1cc(C)cc(CNC(c2ccccc2)c2nccn2C)c1` (stereo unspecified), for which the cytotoxicity at 70.5 h came out at 1.26%.
For the molecule `CCOc1ncccc1C(=O)N1CCCC1Cn1nc(C)cc1C` (stereo unspecified), the cytotoxicity at 70.5 h turned out to be 5.47%.
Regarding `Cc1cc(C)n(CC2CCCN2C(=O)c2cccc(C#N)c2)n1` (stereo unspecified), the cytotoxicity at 70.5 h was -2.63%.
Turning to `Cc1nc(C)n(C2CCCN(C(=O)c3ccnc(N(C)C)c3)C2)n1` (stereo unspecified), the cytotoxicity at 70.5 h was -3.3%.
Turning to `COc1cc(C(=O)N2CCCC2c2noc(C(C)C)n2)on1` (stereo unspecified), the cytotoxicity at 70.5 h is -2.66%.
With `Cc1cnn(CC2CCCN2c2ncnc3ccsc23)c1` (stereo unspecified), the cytotoxicity at 70.5 h came out at 5.5%.
The same measure for `c1ccc(Cc2nnc(CN3CCc4cncnc4C3)o2)cc1`: 1.25%; for `CC(=O)N(Cc1ncc(C)o1)C1CCN(Cc2nccn2C)C1` (stereo unspecified): 2.28%; for `CCc1noc(C)c1C(=O)NCC(c1ccc(C)cc1)N(C)C` (stereo unspecified): -3.99%.
Then `CC(=O)N(Cc1ncc(C(C)C)o1)C1CCN(CCC#N)C1` (stereo unspecified), with -7%; and `COc1ccccc1CC(=O)N1CCC(NCc2ccccn2)CC1`, with 21%.
The same measure for `C1CC(c2nnc(CN3CCCC3c3noc(C4CC4)n3)o2)C1` (stereo unspecified): -7.54%; for `Cc1ncc2c(n1)CN(Cc1nc(Cc3ccccc3)no1)CC2`: -8.87%; for `CCc1ncc2c(n1)CN(Cc1nnc(Cc3ccccc3)o1)CC2`: -1.62%.
Consider `c1cnc(-c2nc(CN3CCN(CC4CC4)CC3)cs2)nc1`, for which the cytotoxicity at 70.5 h was -5.7%.
As to `O=C(c1ccc(Cn2ccccc2=O)o1)N1CCSCC1`, the cytotoxicity at 70.5 h is -8.03%.
Take `Cc1ccc(-c2nc(C(=O)N3CCOCC3)cs2)c(C)c1`: the cytotoxicity at 70.5 h is -12.3%.
Turning to `O=C(Nc1ccc(CCN2CCOCC2)cc1)C1CCC1`, the cytotoxicity at 70.5 h was -3.21%.
Turning to `NC(=O)C1CCN(CCc2ccc(NC(=O)C3CC3)cc2)CC1`, the cytotoxicity at 70.5 h was -3.12%.
Consider `O=C(NCc1csc(Br)c1)N1CCOCC1`, for which the cytotoxicity at 70.5 h was -4.76%.
With `O=C(CCCNc1ncccn1)Nc1cc(C(F)(F)F)c[nH]c1=O`, the cytotoxicity at 70.5 h is -2.93%.
For the molecule `CCOC(=O)c1sc2ccsc2c1CNC(=O)CCOC`, the cytotoxicity at 70.5 h came to 16.3%.
Regarding `CCc1nc2n(n1)CC(NCc1nc(-c3ccccn3)no1)CC2` (stereo unspecified), the cytotoxicity at 70.5 h is -3.45%.
Turning to `CCOC(=O)c1sc2ccsc2c1CNC(=O)C(C)OC` (stereo unspecified), the cytotoxicity at 70.5 h was determined as 3.36%.
Turning to `CC(C)(C)OC(=O)N1CCN(C(=O)CCn2cccn2)CC1`, the cytotoxicity at 70.5 h is -4.56%.
Turning to `CCc1nnc(CN2CCc3cnc(C)nc3C2)o1`, the cytotoxicity at 70.5 h is -3.58%.
`CCc1ccccc1OCC(=O)N1CCOCC1c1ncon1` (stereo unspecified): the cytotoxicity at 70.5 h was found to be 28.4%.
Take `CN(C)CC1CN(Cc2nnc(C(C)(C)C)o2)CCO1` (stereo unspecified): the cytotoxicity at 70.5 h is 11.9%.
As for `O=C(CCCN1CCOC1=O)Nc1cnn(-c2ccccc2Cl)c1`, the cytotoxicity at 70.5 h is -5.24%.
Consider `CCN1CCN(CCCNC(=O)NC(C)c2nncn2C)CC1` (stereo unspecified), for which the cytotoxicity at 70.5 h is 2.39%.
For `CC(C)c1nc2c(n1C)CCN(Cc1nc(-c3cccnc3)no1)C2`, the cytotoxicity at 70.5 h was -11.9%.
Turning to `COc1c(CNCCNC(=O)c2ccccc2F)c(C)nn1C`, the cytotoxicity at 70.5 h was -15.6%.
On to `O=C(CCN1CCOC1=O)Nc1cnn(-c2ccccc2Cl)c1`, for which the cytotoxicity at 70.5 h was -7.73%.
`COc1c(CNC2CCCOc3ccccc32)c(C(C)C)nn1C` (stereo unspecified): the cytotoxicity at 70.5 h is -4.69%.
The same measure for `Cc1nc(C)c(C(=O)NCCNC(=O)Cc2ccc(F)cc2)s1`: 10.7%; for `CC(NC(=O)NCCCN1CCCC1)c1nncn1C` (stereo unspecified): -7.79%; for `NC(=O)C1CCN(C(=O)c2ccn(-c3cccc(F)c3)n2)C1` (stereo unspecified): -19.8%.
As for `NC(=O)C1CCN(C(=O)c2ccn(-c3cccc(Cl)c3)n2)C1` (stereo unspecified), the cytotoxicity at 70.5 h was -17.8%.
Take `CC(C)c1nc2c(n1C)CCN(Cc1nc(-c3ccoc3)no1)C2`: the cytotoxicity at 70.5 h was -4.46%.
As for `CCOc1cc(C)nc(N2CCN(C(=O)C(C)NC(C)=O)CC2)n1` (stereo unspecified), the cytotoxicity at 70.5 h is -1.89%.
Take `CN(C)C(=O)c1cccc(CN2CCN(CC(O)C(C)(C)C)CC2)c1` (stereo unspecified): the cytotoxicity at 70.5 h was -11.5%.
Take `Cc1ccoc1C(=O)N1CCCC(c2cc(C(F)(F)F)[nH]n2)C1` (stereo unspecified): the cytotoxicity at 70.5 h was -8.09%.
Then `Cc1ccc(C(=O)NS(=O)(=O)c2cc(F)ccc2F)c(=O)[nH]1`, with -13.1%; and `Cc1ccc(C)c(S(=O)(=O)NC(=O)c2ccc(C)[nH]c2=O)c1`, with -4.64%.
On to `Cc1ccc(C(=O)NS(=O)(=O)c2cc(Br)ccc2C)c(=O)[nH]1`, for which the cytotoxicity at 70.5 h is -7.4%.
Consider `O=C(CCc1cccc(Cl)c1Cl)N1CCOCC1c1ncon1` (stereo unspecified), for which the cytotoxicity at 70.5 h was -1.88%.
Then `COc1cc(CNCC(O)c2ccc(F)cc2F)cc2c1OCO2` (stereo unspecified), with 4.59%; and `CCS(=O)(=O)c1ccccc1N1CCC(NC2CCCC2)CC1`, with -2.15%.
With `COCCCN(C)C1CCCN(Cc2noc(C3CC3)n2)C1` (stereo unspecified), the cytotoxicity at 70.5 h turned out to be 11.8%.
Then `CCOCCN1CCN(CCCS(C)(=O)=O)CC1C` (stereo unspecified), with 11.8%; and `Cc1cc(CN(C)CC(c2cccs2)N2CCOCC2)on1` (stereo unspecified), with -7.4%.
`Cc1nc(CN2CCCC(N(C)CC3CCCC3)C2)no1` (stereo unspecified): the cytotoxicity at 70.5 h was determined as 0.0887%.
As for `CN(Cc1ccccc1C#N)C1CCN(CCc2ccccn2)CC1`, the cytotoxicity at 70.5 h was -3.57%.
In the case of `C=C(Cl)CN(C)C1CCN(CCc2ccccn2)CC1`, the cytotoxicity at 70.5 h is -6.31%.
Consider `N#Cc1cccc(CN2CCCC2Cn2cccn2)c1` (stereo unspecified), for which the cytotoxicity at 70.5 h is -1.88%.
As for `Cc1noc(C)c1CN(C)CC(c1cccs1)N1CCOCC1` (stereo unspecified), the cytotoxicity at 70.5 h was -4.33%.
As to `COc1ccc(CCNC(=O)CN2CCCC2c2noc(C)n2)cc1` (stereo unspecified), the cytotoxicity at 70.5 h was -1.93%.
For the molecule `Cc1ncc(CN2CCCC2)c2cc(C(=O)c3ccc(Br)cc3)oc12`, the cytotoxicity at 70.5 h was -14.3%.
`COc1c(CNC2CCCOc3ccc(F)cc32)c(C(C)C)nn1C` (stereo unspecified): the cytotoxicity at 70.5 h was -4.87%.
On to `COc1cc(CNCC(O)c2ccc(C)cc2)cc2c1OCO2` (stereo unspecified), for which the cytotoxicity at 70.5 h is -2.01%.
Regarding `COc1cc(CNCC(O)c2cccc(F)c2)cc2c1OCO2` (stereo unspecified), the cytotoxicity at 70.5 h stood at 1.4%.
